Several values for one entry are separate records, joined by “and”; a condition that tells them apart may be missing. Identical values can stand only once. Like-named read-outs stand apart in the source and are kept apart here.
How the values were obtained:
Format in all cases: cell-based
Kv7.2/3 channels = target: T1, Kv7.2/3 channels (Homo sapiens, UniProt O43525+O43526); experiment: Kv7.2/3 channels coexpressed in CHO cells, whole-cell patch-clamp; conditions: for V50: control V50=−32.1±8.9 mV; for fold increase in current amplitude: stepped from −90 to −50 mV, n=10; for Activity: M-channel modulation, Kv7.2 and Kv7.3 subunits coexpressed in CHO cells; for ΔV50 (mV): left-shift of the activation curve of Kv7.2/3 channels
T1 construct: expressed in transfected cells; host or cells: CHO cells
Procedure: (§1) Chinese hamster ovary (CHO) cells were grown in Dulbecco's modified Eagle's medium (DMEM) supplemented with 2 mM glutamine, 10% fetal calf serum and antibiotics. Briefly, 40,000 cells seeded on poly-D-lysine-coated glass coverslips (13 mm diameter) in a 24-multiwell plate were transfected with pIRES-CD8 (0.5 μg) as a marker for transfection, and with Kv7.2 (0.5 μg) and Kv7.3 (0.5 μg) or TRPV1 […] or TRPV6 […].
(§2) For electrophysiology, transfected cells were visualized approximately 40 hours following transfection, using anti-CD8 antibody-coated beads. Transfection was performed using Fugene 6 (Roche, Indianapolis Ind., USA) according to the manufacturer's protocol.
Voltage-clamp recordings in CHO cells were performed, using the whole-cell configuration of the patch-clamp technique. Signals were amplified using an Axopatch 200B patch-clamp amplifier (Molecular Devices, Sunnyvale, Calif.), sampled at 2 kHz and filtered at 800 Hz via a 4-pole Bessel low pass filter. […] The patch pipettes were pulled from borosilicate glass (Warner Instrument Corp, USA) with a resistance of 2-5 MΩ. For K^+ current recordings in CHO cells, the intracellular pipette solution contained (in mM): 130 KCl, 1 MgCl2, 5 K2ATP, 5 EGTA, 10 HEPES, adjusted with KOH to pH 7.4 (290 mOsm). The extracellular solution contained (in mM): 140 NaCl, 4 KCl, 1.8 CaCl2, 1.2 MgCl2, 11 glucose, 5.5 HEPES, adjusted with NaOH to pH 7.4 (310 mOsm).
Data analysis was performed using the Clampfit program (pClamp 9.2, Molecular Devices), Microsoft Excel (Microsoft) and Prism 4.0 (GraphPad). Chord conductance (G) was calculated by using the following equation: G=I/(V−Vrev) where I corresponds to the current amplitude measured at the end of the pulse and Vrev, the calculated reversal potential. G was estimated at various test voltages V and then, normalized to a maximal conductance value, Gmax. Activation curves were fitted by one Boltzmann distribution: G/Gmax=1/{1+exp[(V50−V)/s]} where V50 is the voltage at which the current is half-activated and s is the slope factor. All data were expressed as mean±SEM. Statistically significant differences were assessed by Student's t-test. Analysis of sEPSCs and sIPSCs was done using the Clampfit program (pClamp 9.2, Molecular Devices) and included evaluation of the individual events as well as the average event amplitude and the integral of the event (total charge transfer).
In these studies, the impact of the compounds on M-channel activity was measured by the heterologous coexpression of Kv7.2 and Kv7.3 subunits in CHO cells.

KCNQ2 mutant S121A = target: T2, KCNQ2 mutant S121A (Homo sapiens, UniProt O43526, S121A); experiment: KCNQ2 S1-S2 mutant S121A in CHO cells; conditions: 25 μM NH29
T2 construct: expressed in transfected cells; host or cells: CHO cells
T2 sequence (O43526 whole entry S121A): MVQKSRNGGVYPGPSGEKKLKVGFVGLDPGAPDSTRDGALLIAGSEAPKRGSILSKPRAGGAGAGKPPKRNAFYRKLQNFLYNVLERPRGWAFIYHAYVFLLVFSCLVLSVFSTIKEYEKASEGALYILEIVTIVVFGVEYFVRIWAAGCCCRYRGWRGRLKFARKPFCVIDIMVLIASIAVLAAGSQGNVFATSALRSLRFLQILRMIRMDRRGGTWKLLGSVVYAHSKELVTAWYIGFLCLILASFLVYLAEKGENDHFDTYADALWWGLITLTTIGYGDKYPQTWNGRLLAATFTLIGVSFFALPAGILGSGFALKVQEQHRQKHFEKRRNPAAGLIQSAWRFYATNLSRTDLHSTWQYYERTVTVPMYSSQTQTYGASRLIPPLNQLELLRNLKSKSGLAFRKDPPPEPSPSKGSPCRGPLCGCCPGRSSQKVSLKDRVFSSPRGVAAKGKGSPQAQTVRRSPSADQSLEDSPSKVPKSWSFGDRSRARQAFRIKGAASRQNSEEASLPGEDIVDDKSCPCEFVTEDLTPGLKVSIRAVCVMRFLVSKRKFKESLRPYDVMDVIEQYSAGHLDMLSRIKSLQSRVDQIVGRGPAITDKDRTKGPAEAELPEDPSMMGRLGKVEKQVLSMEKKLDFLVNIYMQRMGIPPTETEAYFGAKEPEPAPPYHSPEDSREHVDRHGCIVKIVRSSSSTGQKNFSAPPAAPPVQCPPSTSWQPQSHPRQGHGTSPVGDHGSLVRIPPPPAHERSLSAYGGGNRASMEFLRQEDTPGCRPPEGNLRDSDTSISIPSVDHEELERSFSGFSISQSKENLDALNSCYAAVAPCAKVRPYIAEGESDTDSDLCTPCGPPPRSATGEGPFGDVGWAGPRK
Source text: (§3) FIGS. 12A-F present the potentiating effect of NH29, an exemplary channel opener compound according to embodiments of the present invention, on selected KCNQ2 mutants. Shown are bar diagrams comparing the potentiating effect of NH29 on native KCNQ2 and KCNQ2 mutants, wherein the mutated amino acids are located at the S1-S2 helix region (FIG. 12A) or S4 helix region (FIG. 12D) and wherein the opener effect is expressed as percent of the control current in the absence of the opener. For comparison, marked as a green line, is the observed current increase of native KCNQ2 by NH29. FIGS. 12B 12C, 12E and 12F present representative traces recorded from CHO cell transfected with the KCNQ2 mutant S122A, S121A, L206C and R201A respectively, before and after external application of 25 μM of NH29 and wherein the membrane potential was stepped from −90 mV holding potential to −40 mV for 1.5 seconds pulse duration.
(§4) Voltage-clamp recordings in CHO cells were performed, using the whole-cell configuration of the patch-clamp technique. Signals were amplified using an Axopatch 200B patch-clamp amplifier (Molecular Devices, Sunnyvale, Calif.), sampled at 2 kHz and filtered at 800 Hz via a 4-pole Bessel low pass filter. […] Series resistances (3-13 MΩ) were compensated (75-90%) and periodically monitored.

TRPV1 channel = target: T3, TRPV1 channel (Homo sapiens, UniProt Q8NER1); experiment: TRPV1 currents in transfected CHO cells activated with capsaicin; conditions: 0.5 μM capsaicin
T3 construct: expressed in transfected cells; host or cells: CHO cells
T3 sequence (Q8NER1 whole entry): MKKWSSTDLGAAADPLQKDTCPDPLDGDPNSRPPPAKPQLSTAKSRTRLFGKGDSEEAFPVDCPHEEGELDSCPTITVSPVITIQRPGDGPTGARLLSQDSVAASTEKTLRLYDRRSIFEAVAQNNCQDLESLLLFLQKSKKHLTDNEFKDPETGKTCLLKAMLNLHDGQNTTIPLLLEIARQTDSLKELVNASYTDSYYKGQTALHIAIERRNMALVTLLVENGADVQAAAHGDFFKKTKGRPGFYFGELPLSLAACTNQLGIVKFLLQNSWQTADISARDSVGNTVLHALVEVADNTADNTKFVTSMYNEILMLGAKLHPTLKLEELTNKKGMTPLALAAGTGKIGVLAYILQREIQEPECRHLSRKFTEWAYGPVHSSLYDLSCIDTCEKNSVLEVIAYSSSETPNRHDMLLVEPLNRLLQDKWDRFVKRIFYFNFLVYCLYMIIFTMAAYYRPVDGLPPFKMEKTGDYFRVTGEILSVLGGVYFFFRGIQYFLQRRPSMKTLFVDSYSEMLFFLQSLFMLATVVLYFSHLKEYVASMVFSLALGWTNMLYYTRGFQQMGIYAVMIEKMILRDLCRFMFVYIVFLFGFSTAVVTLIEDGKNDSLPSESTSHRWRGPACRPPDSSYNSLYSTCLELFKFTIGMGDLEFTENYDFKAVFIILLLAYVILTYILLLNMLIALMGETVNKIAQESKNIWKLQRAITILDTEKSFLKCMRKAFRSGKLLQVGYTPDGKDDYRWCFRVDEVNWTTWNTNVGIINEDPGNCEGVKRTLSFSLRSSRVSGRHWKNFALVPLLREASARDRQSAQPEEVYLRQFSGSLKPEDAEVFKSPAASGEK
Procedure: as §1, §2
as §4, with “filter. Data were acquired using pClamp 9.2 software (Molecular Devices) and an IBM compatible Pentium IV computer in conjunction with a DigiData 1322A interface (Molecular Devices). The patch pipettes were pulled from borosilicate glass (Warner Instrument Corp, USA) with a resistance of 2-5 MΩ.” for “filter.”, “monitored. […]” for “monitored.”

IKS = target: T4, IKS (Homo sapiens, UniProt P51787); experiment: Kv channel selectivity, Xenopus oocytes: IKS; conditions: +30 mV
T4 construct: expressed in transfected cells; host or cells: Xenopus oocytes
T4 sequence (P51787 whole entry): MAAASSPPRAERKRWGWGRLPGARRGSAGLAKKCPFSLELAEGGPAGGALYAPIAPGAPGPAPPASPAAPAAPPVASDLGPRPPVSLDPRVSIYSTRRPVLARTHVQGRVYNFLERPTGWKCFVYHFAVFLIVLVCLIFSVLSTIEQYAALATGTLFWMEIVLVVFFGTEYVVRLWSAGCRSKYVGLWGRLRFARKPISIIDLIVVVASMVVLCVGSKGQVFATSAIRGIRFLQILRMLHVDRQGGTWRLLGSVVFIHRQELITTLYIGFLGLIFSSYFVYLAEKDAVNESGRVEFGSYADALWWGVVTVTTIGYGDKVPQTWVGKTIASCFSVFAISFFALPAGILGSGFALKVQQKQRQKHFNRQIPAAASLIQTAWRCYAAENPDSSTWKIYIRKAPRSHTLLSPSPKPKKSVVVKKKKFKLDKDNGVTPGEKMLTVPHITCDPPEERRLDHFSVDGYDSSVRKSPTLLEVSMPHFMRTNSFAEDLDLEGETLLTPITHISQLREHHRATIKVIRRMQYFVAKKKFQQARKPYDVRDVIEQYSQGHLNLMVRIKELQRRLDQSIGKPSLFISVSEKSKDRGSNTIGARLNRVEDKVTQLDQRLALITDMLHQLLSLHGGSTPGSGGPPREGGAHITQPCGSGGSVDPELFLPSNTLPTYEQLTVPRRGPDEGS
Procedure: Voltage-clamp measurements in Xenopus oocytes were performed as previously described.
The selectivity of NH29 on other relevant Kv channels expressed in Xenopus oocytes was also studied, and the results are summarized in Table 3 below. The specificity of NH29 at 25 μM and 50 μM towards various Kv channels was tested in Xenopus oocytes, except for Kv1.2 which was checked in transfected CHO cells. The current amplitude of the various Kv channels was tested at the indicated voltages and the effect of the drugs was expressed as fold of the control amplitude measured under the same conditions in the absence of the drug. The data in Table 3 are expressed as mean±SEM of 5-7 separate experiments.

KCNQ2 mutant L206C = target: T5, KCNQ2 mutant L206C (Homo sapiens, UniProt O43526, L206C); experiment: KCNQ2 S4 mutant L206C in CHO cells; conditions: 25 μM NH29
T5 construct: expressed in transfected cells; host or cells: CHO cells
T5 sequence (O43526 whole entry L206C): as the sequence (O43526 whole entry S121A) above, with A121S, L206C counted along it
Source text: as §3, §4

## O=C(Cc1cc([N+](=O)[O-])ccc1Nc1c(Cl)cccc1Cl)OCCO [NH25]
Kv7.2/3 channels; 10 μM
  left-shift of Kv7.2/3 activation curve compared to control: −11 mV
  fold increase in current amplitude: 3.2 fold
Kv7.2/3 channels; 10 μM NH25, n=5
  V50: −43.6±9.0 mV
Kv7.2/3 channels; 50 μM
  left-shift of Kv7.2/3 activation curve compared to control: −21 mV
  fold increase in current amplitude: 9.1 fold
Kv7.2/3 channels; 50 μM NH25, n=5
  V50: −53.5±9.3 mV
Kv7.2/3 channels; 200 μM
  left-shift of Kv7.2/3 activation curve compared to control: −31 mV
Kv7.2/3 channels; 200 μM NH25, n=5
  V50: −63.1±2.0 mV
Kv7.2/3 channels
  Activity: Opener
  ΔV50 (mV): −31.0 mV and −31 mV
Kv7.2/3 channels; NH25, tail currents at −60 mV, control 129±22 ms, n=5
  deactivation kinetics τdeact: 284 ± 43 ms
Kv7.2/3 channels; opener potency, concentration-dependent left-shift in half-activation potential ΔV50, sigmoidal fit, read-out: EC50
  EC50: 22 µM

## O=C(Cc1cc([N+](=O)[O-])cc([N+](=O)[O-])c1Nc1c(Cl)cc([N+](=O)[O-])cc1Cl)NCCO [NH29]
KCNQ2 mutant S121A
  fold activation of current: 2 fold
Kv7.2/3 channels
  EC50: 14 ± 2 µM
  Activity: Opener
  ΔV50 (mV): −31.3 mV
Kv7.2/3 channels; 10 μM
  left-shift of Kv7.2/3 activation curve compared to control: −13 mV
Kv7.2/3 channels; 25 μM, at −50 mV, n=5
  fold increase of Kv7.2/3 current amplitude: 9.4±1.2 fold
Kv7.2/3 channels; 100 μM
  left-shift of Kv7.2/3 activation curve compared to control: −31 mV
Kv7.2/3 channels; opener potency, concentration-dependent left-shift in half-activation potential ΔV50, sigmoidal fit
  EC50: 14 µM
TRPV1 channel; NH29 at 5-50 M as printed
  inhibition of TRPV1 channels: potently inhibited TRPV1 channels
TRPV1 channel; 50 μM, reversible
  inhibition of TRPV1 current: almost completely
IKS; 25 μM
  Fold current amplitude: 1.02 ± 0.04 fold
IKS; 50 μM
  Fold current amplitude: 0.97 ± 0.04 fold
KCNQ2 mutant L206C
  opener activity on S4 mutant L206C: NH29 activity was preserved

Reference: patent US9403756B2, “N-phenyl anthranilic acid derivatives and uses thereof” (Ramot at Tel-Aviv University Ltd., priority 2007, dated 2016)
